Measurements reported in patent US11098010B2 (priority 2017, dated 2021).
Counter-ions that a name gives are not always drawn.

test system: HBV rcDNA in HepDE19 cells; assay: HepDE19 assay with bDNA quantitation of HBV rcDNA; format: cell-based, hepatitis B virus (HBV); conditions: HepDE19 cells, inhibition of rcDNA formation, 7 day incubation, top concentration 25 μM; read-out: DE-19 bDNA EC50

Point of comparison: `O=C(N[C@H]1CCc2c(C(=O)Nc3ccc(F)c(Cl)c3)cccc21)OC1CC1` [Compound 229, O-cyclopropyl, N-(S)-(4-((3-chloro-4-fluorophenyl)carbamoyl)-2,3-dihydro-1H-inden-1-yl) carbamate], EC50 0.36 µM. Against it:
- O=C(Nc1ccc(F)c(Cl)c1)c1ccc(F)c2c1OCC2NS(=O)(=O)C1CC1 (single isomer, unassigned) [Compound 207, N-(3-chloro-4-fluorophenyl)-3-(cyclopropanesulfonamido)-4-fluoro-2,3-dihydrobenzofuran-7-carboxamide] — 39-fold higher, 14 µM

same assay, conditions: Hepatitis B virus, HepDE19, 168 h, HepDE19 cells, inhibition of rcDNA formation, 7 day incubation, top concentration 25 μM; read-out: DE-19 bDNA EC50

Point of comparison: `O=C(Nc1ccc(F)c(Cl)c1)c1ccc(F)c2c1CC[C@@H]2NC(=O)C1CC1` [Compound 179, (S)—N-(3-Chloro-4-fluorophenyl)-1-(cyclopropanecarboxamido)-7-fluoro-2,3-dihydro-1H-indene-4-carboxamide], EC50 0.14 µM. Against it:
- O=C(N[C@H]1CCc2c(C(=O)Nc3ccc(F)c(Cl)c3)ccc(F)c21)OCc1cn2ccccc2n1 [Compound 41, O-Imidazo[1,2-a]pyridin-2-ylmethyl, N—(S)-(4-((3-chloro-4-fluorophenyl)carbamoyl)-7-fluoro-2,3-dihydro-1H-inden-1-yl) carbamate] — within 1.5-fold, 0.16 µM
- O=C(N[C@H]1CCc2c(C(=O)Nc3ccc(F)c(Cl)c3)ccc(F)c21)OCc1cccc[n+]1[O-] [Compound 67, (S)-2-((((4-((3-Chloro-4-fluorophenyl)carbamoyl)-7-fluoro-2,3-dihydro-1H-inden-1-yl)carbamoyl)oxy)methyl)pyridine 1-oxide] — 2.2-fold higher, 0.31 µM

same assay, conditions: Hepatitis B virus, HepDE19, 168 h, read-out: DE-19 bDNA EC50 (μM), HepDE19 cells, inhibition of rcDNA formation, 7 day incubation, top concentration 25 μM

Point of comparison: `O=C1CC[C@@H](COC(=O)N[C@H]2CCc3c(C(=O)Nc4ccc(F)c(Cl)c4)cccc32)N1` [Compound 22, O—((S)-5-Oxopyrrolidin-2-yl)methyl, N—((S)-4-((3-chloro-4-fluorophenyl)carbamoyl)-2,3-dihydro-1H-inden-1-yl) carbamate], EC50 0.44 µM. Against it:
- COC(=O)N[C@@H]1c2cccc(C(=O)Nc3ccc(F)c(Cl)c3)c2C[C@H]1O [Compound 46, O-Methyl, N-((1R,2R)-4-((3-chloro-4-fluorophenyl)carbamoyl)-2-hydroxy-2,3-dihydro-1H-inden-1-yl) carbamate] — 1.6-fold higher, 0.7 µM
- O=C(N[C@H]1CCc2c(C(=O)Nc3ccc(F)c(Cl)c3)ccc(F)c21)OCc1cc(Cl)ccn1 [Compound 80, O-(4-Chloropyridin-2-yl)methyl, N—(S)-(4-((3-chloro-4-fluorophenyl)carbamoyl)-7-fluoro-2,3-dihydro-1H-inden-1-yl) carbamate Hydrochloride] — within 1.5-fold, 0.33 µM
- Cc1cc(NC(=O)c2cccc3c2CC[C@@H]3NC(=O)OC[C@@H]2CCC(=O)N2)ccc1F [Compound 25, O—((S)-5-Oxopyrrolidin-2-yl)methyl, N—((S)-4-((4-fluoro-3-methylphenyl)carbamoyl)-2,3-dihydro-1H-inden-1-yl) carbamate] — 2.5-fold higher, 1.1 µM
- O=C(N[C@H]1CCc2c(C(=O)Nc3ccc(F)c(Cl)c3)ccc(F)c21)OCc1ncccc1F [Compound 138, O-(3-Fluoropyridin-2-yl)methyl, N—(S)-(4-((3-chloro-4-fluorophenyl)carbamoyl)-7-fluoro-2,3-dihydro-1H-inden-1-yl) carbamate] — 2.8-fold lower, 0.16 µM

same assay, conditions: read-out: DE-19 bDNA EC50; HepDE19 cells, inhibition of rcDNA formation, 7 day incubation, top concentration 25 μM

Point of comparison: `O=C(N[C@H]1CCc2c(C(=O)Nc3ccc(F)c(Cl)c3)ccc(F)c21)OC1CCC(O)CC1` (stereo partly drawn) [Compound 156, O-trans-4-Hydroxycyclohexyl, N—((S)-4-((3-chloro-4-fluorophenyl)carbamoyl)-7-fluoro-2,3-dihydro-1H-inden-1-yl) carbamate], EC50 0.22 µM. Against it:
- CNC(=O)NC1COc2c(C(=O)Nc3ccc(F)c(Cl)c3)ccc(F)c21 (single isomer, unassigned) [Compound 189, N-(3-Chloro-4-fluorophenyl)-4-fluoro-3-(3-methylureido)-2,3-dihydrobenzofuran-7-carboxamide] — 2-fold higher, 0.45 µM
- COC(=O)NC1COc2c(C(=O)Nc3ccc(F)c(F)c3)cccc21 (stereo not shown) [Compound 5, O-Methyl, N-(7-((3,4-difluorophenyl)carbamoyl)-2,3-dihydrobenzofuran-3-yl) carbamate] — 64-fold higher, 14 µM
